# According to US11034725B2, “Compositions and methods for treating cardiovascular disease” (Genentech, Inc., priority 2016, dated 2021):
# pIC50, pKd: −log10 of the molar value. Where “and” joins values, the source holds several entries; their conditions need not be identical. Identical values can stand only once. Like-named read-outs stand apart in the source and are kept apart here. Numbered stars: 1 amine (or outer) side, 2 acyl side, 3 side chain; on linkers, the order of the positions; unused ones are H or OH. Bridge positions count the residues as written; N and C are the ends. Square brackets hold non-standard residues; d marks the D form. Peptide text beside a SMILES is read from it. * marks the point of attachment. 5FAM = O=C1OC2(c3ccc(O)cc3Oc3cc(O)ccc32)c2ccc(C(=O)*)cc21; NH(CH2)8CO = O=C(CCCCCCCCN[*:1])[*:2]; Aoc = NCCCCCCCC(=O)O
# Columns and labels:
# PCSK9Δhelix [1] = biological target: T1, PCSK9Δhelix (Homo sapiens, UniProt Q8NBP7); test: Surface plasmon resonance biosensor-based affinity analysis (Example 4); type: binding; settings: Table 7, Target PCSK9Δhelix, SPR at 20° C.; read-out: Kd
# T1 construct: Human PCSK9 construct M1-Q692 with an engineered TEV site (residue deletion Y166, R167); made in house; host or cells: CHO
# Experimental: All assays were conducted at an analysis temperature of 20° C. Samples were held at 10° C. in the sample rack to prevent denaturation of PCSK9 proteins. A biacore T100 from GE HealthCare and a SensiQ Pioneer FE were employed. All reagents were obtained from Sigma-Aldrich unless otherwise stated. The full set of peptides was analyzed using three closely related biosensor protocols that were expected to report equivalent affinity/kinetic parameters. The need for multiple protocols was related to the aggregation potential of some peptides. The buffer composition was largely conserved other than the addition of solubilizers such as dimethylsulfoxide (DMSO), 10 kDa polyvinylpyrrolidone (PVP) and 10 kDa carboxymethylated dextran (CM dextran).
# A Series S NTA sensor chip was docked in the Biacore T100 biosensor system. The system was primed into running buffer (i.e. 50 mM HEPES, 0.15 M NaCl, 0.005% T20, pH 7.5). Hexahistidine-tagged proteins (“hexahistidine” disclosed as SEQ ID NO: 297) (i.e. PCSK9 or PCSK9Δhelix) were affinity captured onto separate sensing channels where at least one sensing surface remained uncoated in order to be applied as a referencing sensing surface. Compound samples were prepared in running buffer and injected. All affinity bound complexes were then removed before reloading each protein in order to test the next sample. Each sample cycle therefore consisted of five sequential injections that were repeated for each test sample as follows.
# Injected sample using high quality injection mode. […] For these compounds the entire sample cycle consisting of five serial injections was repeated for each dilution. This sample cycle was a repeated sequence that is executed for each sample in the sample table.
# This method was identical to method 1 except an alternative injection mode designated as single cycle kinetics (named by the manufacturer) was employed allowing a full dilution series to be completed during each sample cycle by replacing a single compound dilution injection with five sequential injections of increasing concentration. The resulting sensorgram (i.e. response curve) contained five binding-dissociation phases each associated with each injected compound dilution. The activation, capture and regeneration injections remained unchanged. […] Also CM dextran (Sigma-Aldrich product number 86524) was added to all buffers in the assay to a final concentration of 2 mg/mL in order to further lower non-specific binding to the surface. […] All recorded binding curves were automatically double referenced and fitted with a 1:1 model using BIAevaluation analysis software from GE HealthCare.
# This instrument is analogous to Biacore AB biosensors in terms of surface chemistry, flow injection analysis and methodologies that can be employed except that it also provides a method to titrate compounds over the sensing surfaces.
# His-EGF(A)-Fc = His-EGF(A)-Fc TR-FRET counterscreen
# PCSK9Δhelix [2] = biological target: T1, PCSK9Δhelix; test: PCSK9Δhelix/Ab20 TR-FRET binding assay
# PCSK9 = PCSK9 (Homo sapiens, UniProt Q8NBP7); test: PCSK9/EGF(A) TR-FRET binding assay
# [3] = TR-FRET counterscreen, Table 8D, * = some inhibition at highest concentrations, not sufficient to fit an IC50
# [4] = TR-FRET, Table 8D, disulfide-cyclized extension peptides, read-out: PCSK9Δhelix/Ab20 IC50
# [5] = TR-FRET, Table 8D, disulfide-cyclized extension peptides, read-out: PCSK9/EGF(A) IC50
# [6] = TR-FRET, Example 7, read-out: PCSK9Δhelix/Ab20 IC50
# [7] = TR-FRET, Example 7, read-out: PCSK9/EGF(A) IC50
# [8] = TR-FRET counterscreen, Table 8E, additional compounds
# [9] = TR-FRET, Table 8E, additional compounds, read-out: PCSK9Δhelix/Ab20 IC50
# [10] = TR-FRET, Table 8E, additional compounds, read-out: PCSK9/EGF(A) IC50
# T1 sequence (Q8NBP7 with tags, fused parts or gaps limits assumed): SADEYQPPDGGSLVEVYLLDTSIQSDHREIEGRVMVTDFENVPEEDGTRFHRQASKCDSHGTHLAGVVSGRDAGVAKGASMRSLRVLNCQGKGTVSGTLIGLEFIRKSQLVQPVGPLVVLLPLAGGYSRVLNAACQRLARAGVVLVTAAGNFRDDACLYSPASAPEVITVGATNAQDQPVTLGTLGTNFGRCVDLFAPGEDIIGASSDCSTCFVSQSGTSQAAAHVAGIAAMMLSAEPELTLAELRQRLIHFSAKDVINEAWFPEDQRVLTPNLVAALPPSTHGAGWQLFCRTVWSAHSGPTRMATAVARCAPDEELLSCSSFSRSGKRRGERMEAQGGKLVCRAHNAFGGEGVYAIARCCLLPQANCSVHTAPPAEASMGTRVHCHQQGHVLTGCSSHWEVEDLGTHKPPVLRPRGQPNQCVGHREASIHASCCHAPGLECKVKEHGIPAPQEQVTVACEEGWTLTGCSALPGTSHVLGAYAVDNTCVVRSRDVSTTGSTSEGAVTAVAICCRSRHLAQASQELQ
# T1 sequence (Q8NBP7 31-152 partner limits assumed): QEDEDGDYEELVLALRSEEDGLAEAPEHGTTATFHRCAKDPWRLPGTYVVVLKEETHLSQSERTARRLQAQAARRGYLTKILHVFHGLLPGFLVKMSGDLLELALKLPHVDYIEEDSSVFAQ
# Sequence of PCSK9 (Q8NBP7 153-692): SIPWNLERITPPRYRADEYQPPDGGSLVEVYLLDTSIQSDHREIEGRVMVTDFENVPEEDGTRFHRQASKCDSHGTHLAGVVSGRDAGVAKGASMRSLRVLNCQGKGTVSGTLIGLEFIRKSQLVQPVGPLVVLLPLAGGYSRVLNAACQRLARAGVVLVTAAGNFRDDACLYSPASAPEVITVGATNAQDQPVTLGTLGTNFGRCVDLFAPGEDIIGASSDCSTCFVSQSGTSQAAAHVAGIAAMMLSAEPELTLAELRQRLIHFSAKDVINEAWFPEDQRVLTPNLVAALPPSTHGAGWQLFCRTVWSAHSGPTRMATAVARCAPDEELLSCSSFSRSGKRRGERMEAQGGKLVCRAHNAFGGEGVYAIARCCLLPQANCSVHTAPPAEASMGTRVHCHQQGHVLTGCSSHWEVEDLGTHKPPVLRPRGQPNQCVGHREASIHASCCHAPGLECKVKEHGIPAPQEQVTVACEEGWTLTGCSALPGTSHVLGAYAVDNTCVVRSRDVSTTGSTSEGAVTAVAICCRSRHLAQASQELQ
# Sequence of PCSK9 (Q8NBP7 31-152 partner limits assumed): as the sequence (Q8NBP7 31-152 partner limits assumed) above
Compound,pIC50 (His-EGF(A)-Fc; [3]),pIC50 (PCSK9Δhelix [2]; [4]),pIC50 (PCSK9; [5]),pIC50 (PCSK9Δhelix [2]; [6]),also measured
H-SGDLMPWNLVRIGLLR-OH [Compound 28],–,–,–,–,pKd (PCSK9Δhelix [1]): 6.07
CC[C@H](C)[C@@H]1NC(=O)[C@H](CCCNC(=N)N)NC(=O)[C@H](CCC(N)=O)NC(=O)[C@H](CC(C)C)NC(=O)[C@H](CC(N)=O)NC(=O)[C@H](Cc2c[nH]c3ccccc23)NC(=O)[C@@H]2CCCN2C(=O)[C@H]([C@@H](C)CC)NC(=O)[C@H](Cc2ccccc2)NC(=O)[C@@H](NC(=O)CNC(=O)[C@H](CO)NC(=O)CNC(=O)[C@H](CO)NC(=O)c2ccc3c(c2)C(=O)OC32c3ccc(O)cc3Oc3cc(O)ccc32)CSSC[C@@H](C(N)=O)NC(=O)[C@H](CC(C)C)NC(=O)[C@H](CC(C)C)NC(=O)CNC1=O [Compound 33] (5FAM-SGSGCFIPWNLQRIGLLC-NH2; disulfide 5-18),–,–,–,–,pKd (PCSK9Δhelix [1]): 5.00
CC[C@H](C)[C@@H]1NC(=O)[C@H](CCCNC(=N)N)NC(=O)[C@H](CCCCN)NC(=O)[C@H](CC(C)C)NC(=O)[C@H](CC(N)=O)NC(=O)[C@H](Cc2c[nH]c3ccccc23)NC(=O)[C@H](CC(C)C)NC(=O)[C@@H](NC(=O)[C@H](Cc2ccccc2)NC(C)=O)CSSC[C@@H](C(=O)N[C@@H](Cc2c[nH]c3ccccc23)C(=O)N[C@@H](Cc2ccccc2)C(N)=O)NC(=O)[C@H](CCC(N)=O)NC(=O)[C@H](C)NC(=O)CNC1=O [Compound 96] (Ac-FCLWNLKRIGAQCWF-NH2; disulfide 2-13 (inferred)),–,–,–,–,pKd (PCSK9Δhelix [1]): 5.60
CC[C@H](C)[C@@H]1NC(=O)[C@H](CCCNC(=N)N)NC(=O)[C@H](CCCCN)NC(=O)[C@H](CC(C)C)NC(=O)[C@H](CC(N)=O)NC(=O)[C@H](Cc2c[nH]c3ccccc23)NC(=O)[C@@H](NC(=O)CNC(=O)[C@H](CO)NC(=O)CNC(C)=O)CSSC[C@@H](C(N)=O)NC(=O)CNC(=O)[C@H](CCC(N)=O)NC(=O)[C@H](CO)NC(=O)CNC1=O [Compound 22] (Ac-GSGCWNLKRIGSQGC-NH2; disulfide 4-15 (inferred)),< 4.30,–,–,–,"pIC50 (PCSK9Δhelix [2]; PCSK9Δhelix/Ab20 IC50, TR-FRET, Table 8D, disulfide-cyclized extension peptides): 4.85 and < 4.30; pIC50 (PCSK9; PCSK9/EGF(A) IC50, TR-FRET, Table 8D, disulfide-cyclized extension peptides): < 4.30"
CC(=O)N[C@H]1CSSC[C@@H](C(N)=O)NC(=O)CCCCCCCNC(=O)[C@H](CCCNC(=N)N)NC(=O)[C@H](CCC(N)=O)NC(=O)[C@H](CC(C)C)NC(=O)[C@H](CC(N)=O)NC(=O)[C@H](Cc2c[nH]c3ccccc23)NC(=O)[C@@H]2CCCN2C(=O)[C@H](CC(C)C)NC(=O)[C@H](CCCNC(=N)N)NC1=O [Compound 86] (Ac-CRLPWNLQR[Aoc]C-NH2; disulfide 1-11),< 4.30,< 4.30,< 4.30,–,inhibition in the PCSK9Δhelix/Ab20 binding assay (PCSK9Δhelix [2]): removes inhibition
Ac-DLMPWNLVRIGALR-NH2 [Compound 56],–,–,–,4.77,"pIC50 (His-EGF(A)-Fc; counterscreen, Example 7): < 4.30; pIC50 (PCSK9; [7]): < 4.30"
CC[C@H](C)[C@@H]1NC(=O)[C@H](CCCNC(=N)N)NC(=O)[C@H](CCCCN)NC(=O)[C@H](CC(C)C)NC(=O)[C@H](CC(N)=O)NC(=O)[C@H](Cc2c[nH]c3ccccc23)NC(=O)[C@@H](NC(=O)CCCCCCCNC(=O)[C@@H](NC(=O)[C@H](Cc2c[nH]c3ccccc23)NC(=O)[C@H](CC(=O)O)NC(=O)[C@H](CC(C)C)NC(=O)[C@H](Cc2ccc(O)cc2)NC(=O)[C@H](CCC(=O)O)NC(=O)[C@H](CCC(=O)O)NC(=O)[C@H](Cc2c[nH]c3ccccc23)NC(=O)[C@H](CO)NC(=O)[C@@H](NC(=O)[C@H](Cc2ccccc2)NC(=O)[C@@H](NC(=O)[C@@H](NC(C)=O)[C@@H](C)O)C(C)C)[C@@H](C)O)C(C)C)CSSC[C@@H](C(N)=O)NC(=O)CNC(=O)[C@H](CCC(N)=O)NC(=O)[C@H](CO)NC(=O)CNC1=O [Compound 15],–,–,–,8.70,"pIC50 (His-EGF(A)-Fc; counterscreen, Example 7): < 4.30; inhibition in the PCSK9Δhelix/Ab20 binding assay (PCSK9Δhelix [2]): maintained potency; inhibition in the PCSK9/EGF(A) binding assay (PCSK9): maintained potency"
Ac-DLMPWNLVRAGLLR-NH2 [Compound 58],–,–,–,< 4.31,"pIC50 (His-EGF(A)-Fc; counterscreen, Example 7): < 4.30; pIC50 (PCSK9; [7]): < 4.30"
Ac-DLMPWNAVRIGLLR-NH2 [Compound 61],–,–,–,< 4.31,"pIC50 (His-EGF(A)-Fc; counterscreen, Example 7): < 4.30; pIC50 (PCSK9; [7]): < 4.30"
CC[C@H](C)[C@@H]1NC(=O)[C@H](CCCNC(=N)N)NC(=O)[C@H](CCC(N)=O)NC(=O)[C@H](CC(C)C)NC(=O)[C@H](CC(N)=O)NC(=O)[C@H](Cc2c[nH]c3ccccc23)NC(=O)[C@@H]2CCCN2C(=O)[C@H](CC(C)C)NC(=O)[C@H](CCCNC(=N)N)NC(=O)[C@@H](NC(C)=O)CSSC[C@@H](C(N)=O)NC(=O)[C@@H]2CCCN2C(=O)[C@@H](CC(C)C)NC(=O)CNC1=O [Compound 100] (Ac-CRLPWNLQRIG[dL]PC-NH2; disulfide 1-14),< 4.30,< 4.30,< 4.30,–,–
Ac-DLMPWNLARIGLLR-NH2 [Compound 60],–,–,–,4.72,"pIC50 (His-EGF(A)-Fc; counterscreen, Example 7): < 4.30; pIC50 (PCSK9; [7]): < 4.30"
CC[C@H](C)[C@@H]1NC(=O)[C@H](CCCNC(=N)N)NC(=O)[C@H](CCC(N)=O)NC(=O)[C@H](CC(C)C)NC(=O)[C@H](CC(N)=O)NC(=O)[C@H](Cc2c[nH]c3ccccc23)NC(=O)[C@H](C)NC(=O)[C@H](CC(C)C)NC(=O)[C@H](CCCNC(=N)N)NC(=O)[C@@H](NC(C)=O)CSSC[C@@H](C(N)=O)NC(=O)[C@@H]2CCCN2C(=O)[C@H](CC(C)C)NC(=O)CNC1=O [Compound 77] (Ac-CRLAWNLQRIGLPC-NH2; disulfide 1-14),< 4.30,5.22,< 4.30,–,–
CC[C@H](C)[C@@H]1NC(=O)[C@H](CCCNC(=N)N)NC(=O)[C@H](CCCCN)NC(=O)[C@H](CC(C)C)NC(=O)[C@H](CC(N)=O)NC(=O)[C@H](Cc2c[nH]c3ccccc23)NC(=O)[C@H](CC(C)C)NC(=O)[C@@H](NC(=O)[C@H](CC(=O)O)NC(C)=O)CSSC[C@@H](C(=O)N[C@@H](CCC(=O)O)C(=O)N[C@@H](Cc2ccc(O)cc2)C(N)=O)NC(=O)[C@H](CCC(N)=O)NC(=O)[C@H](CO)NC(=O)CNC1=O [Compound 64] (Ac-DCLWNLKRIGSQCEY-NH2; disulfide 2-13),< 4.30,< 4.30,< 4.30,–,–
Ac-SGDLMPWNLVRIGLLR-NH2 [Compound 122],–,–,–,–,pIC50 (His-EGF(A)-Fc; [8]): ≤ 4.30; pIC50 (PCSK9Δhelix [2]; [9]): 5.25; pIC50 (PCSK9; [10]): ≤ 4.30
Ac-GLMPWNLVRIGLLR-NH2 [Compound 124],–,–,–,–,pIC50 (His-EGF(A)-Fc; [8]): ≤ 4.30; pIC50 (PCSK9Δhelix [2]; [9]): 5.41; pIC50 (PCSK9; [10]): ≤ 4.30
CC[C@H](C)[C@@H]1NC(=O)[C@H](CCCNC(=N)N)NC(=O)[C@H](CCCCN)NC(=O)[C@H](CC(C)C)NC(=O)[C@H](CC(N)=O)NC(=O)[C@H](Cc2c[nH]c3ccccc23)NC(=O)[C@@H]2CCCN2C(=O)[C@H](CC(C)C)NC(=O)[C@H](CCCNC(=N)N)NC(=O)[C@@H](NC(C)=O)CSSC[C@@H](C(N)=O)NC(=O)[C@@H]2CCCN2C(=O)[C@H](CC(C)C)NC(=O)CNC1=O [Compound 67] (Ac-CRLPWNLKRIGLPC-NH2; disulfide 1-14),< 4.30,6.16,< 4.30,6.15,–
CC[C@H](C)[C@@H]1NC(=O)[C@H](CCCNC(=N)N)NC(=O)[C@H](CCC(N)=O)NC(=O)[C@H](CC(C)C)NC(=O)[C@H](C)NC(=O)[C@H](Cc2c[nH]c3ccccc23)NC(=O)[C@@H]2CCCN2C(=O)[C@H](CC(C)C)NC(=O)[C@H](CCCNC(=N)N)NC(=O)[C@@H](NC(C)=O)CSSC[C@@H](C(N)=O)NC(=O)[C@@H]2CCCN2C(=O)[C@H](CC(C)C)NC(=O)CNC1=O [Compound 75] (Ac-CRLPWALQRIGLPC-NH2; disulfide 1-14),< 4.30,4.31,< 4.30,–,–
CC(=O)N[C@H]1CSSC[C@@H](C(N)=O)NC(=O)CCCCCCCCNC(=O)[C@H](CCCNC(=N)N)NC(=O)[C@H](CCC(N)=O)NC(=O)[C@H](CC(C)C)NC(=O)[C@H](CC(N)=O)NC(=O)[C@H](Cc2c[nH]c3ccccc23)NC(=O)[C@@H]2CCCN2C(=O)[C@H](CC(C)C)NC(=O)[C@H](CCCNC(=N)N)NC1=O [Compound 85] (Ac-CRLPWNLQR[NH(CH2)8CO]C-NH2; disulfide 1-11),< 4.30,< 4.30,< 4.30,–,inhibition in the PCSK9Δhelix/Ab20 binding assay (PCSK9Δhelix [2]): removes inhibition
CC[C@H](C)[C@@H]1NC(=O)[C@H](CCCNC(=N)N)NC(=O)[C@H](CCC(N)=O)NC(=O)[C@H](CC(C)C)NC(=O)[C@@H](CC(N)=O)NC(=O)[C@H](Cc2c[nH]c3ccccc23)NC(=O)[C@@H]2CCCN2C(=O)[C@H](CC(C)C)NC(=O)[C@H](CCCNC(=N)N)NC(=O)[C@@H](NC(C)=O)CSSC[C@@H](C(N)=O)NC(=O)[C@@H]2CCCN2C(=O)[C@H](CC(C)C)NC(=O)CNC1=O [Compound 105] (Ac-CRLPW[dN]LQRIGLPC-NH2; disulfide 1-14),< 4.30,< 4.30,< 4.30,–,–
